Test results reported in ChEMBL document CHEMBL1201862, “PubChem BioAssay data set” (2004).
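How tested: cells in 96-well plates exposed to compound for 48 hours at five concentrations. GI50 marks 50% less growth.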 The source made the active and inactive calls. Rule as the data show it: active = GI50 up to about 1.1 µM and inactive = higher.

Experiments:
Test in all cases: inhibition of tumour cell growth, NCI panel, 48 h
MOLT-4 = test system: MOLT-4
SN12C = test system: SN12C
RXF 393 = test system: RXF 393
MDA-MB-231 = test system: MDA-MB-231
OVCAR-5 = test system: OVCAR-5
HT-29 = test system: HT-29
Hs-578T = test system: Hs-578T
U-251 = test system: U-251
NCI-H226 = test system: NCI-H226
UACC-62 = test system: UACC-62
HCT-15 = test system: HCT-15
COLO 205 = test system: COLO 205
786-0 = test system: 786-0
SK-MEL-28 = test system: SK-MEL-28
IGROV-1 = test system: IGROV-1
MDA-MB-435 = test system: MDA-MB-435
ACHN = test system: ACHN
SK-MEL-5 = test system: SK-MEL-5
HOP-92 = test system: HOP-92
NCI-H522 = test system: NCI-H522

SMILES	GI50 (MOLT-4)	GI50 (SN12C)	GI50 (RXF 393)	GI50 (MDA-MB-231)	GI50 (OVCAR-5)	GI50 (HT-29)	GI50 (Hs-578T)	GI50 (U-251)	GI50 (NCI-H226)	GI50 (UACC-62)	GI50 (HCT-15) [µM]	GI50 (COLO 205)	GI50 (786-0)	GI50 (SK-MEL-28)	GI50 (IGROV-1)	GI50 (MDA-MB-435)	GI50 (ACHN)	GI50 (SK-MEL-5)	GI50 (HOP-92)	GI50 (NCI-H522)
CCOc1ccc2ccccc2c1NC1=NCCO1	27.5 µM (inactive)	> 100 µM (inactive)	98.6 µM (inactive)	> 100 µM (inactive)	> 100 µM (inactive)	30.3 µM (inactive)	23.1 µM (inactive)	45.3 µM (inactive)	25.7 µM (inactive)	39.4 µM (inactive)	> 100	36.6 µM (inactive)	> 100 µM (inactive)	> 100 µM (inactive)	33.9 µM (inactive)	25.8 µM (inactive)	20.6 µM (inactive)	44.9 µM (inactive)	15.3 µM (inactive)	
CN1CCCN2CCN(C)CCN(CC1)CC2	> 100 µM (inactive)	> 100 µM (inactive)	> 100 µM (inactive)	> 100 µM (inactive)	> 100 µM (inactive)	> 100 µM (inactive)	> 100 µM (inactive)	> 100 µM (inactive)		> 100 µM (inactive)	> 100	> 100 µM (inactive)	> 100 µM (inactive)	> 100 µM (inactive)	> 100 µM (inactive)	> 100 µM (inactive)	> 100 µM (inactive)	> 100 µM (inactive)	> 100 µM (inactive)	> 100 µM (inactive)
C[C@@H]1C[C@](O)([C@@H](C)Cl)C(=O)O[C@@H]2CCN3CC=C(COC(=O)[C@]1(C)O)[C@H]23				> 100 µM (inactive)	> 100 µM (inactive)	> 100 µM (inactive)	> 100 µM (inactive)	> 100 µM (inactive)	> 100 µM (inactive)	> 100 µM (inactive)	> 100	> 100 µM (inactive)	> 100 µM (inactive)	> 100 µM (inactive)	> 100 µM (inactive)	> 100 µM (inactive)	> 10 µM (inactive)	> 100 µM (inactive)	> 100 µM (inactive)	> 100 µM (inactive)
Oc1c(N2CCCCC2)cc(-c2cc(N3CCCCC3)c(O)c3ccccc23)c2ccccc12	22.9 µM (inactive)	27.6 µM (inactive)	20.4 µM (inactive)	39.8 µM (inactive)	72.4 µM (inactive)	23 µM (inactive)	27.7 µM (inactive)	35.2 µM (inactive)	> 100 µM (inactive)	21.1 µM (inactive)	35.2	26.2 µM (inactive)	22.3 µM (inactive)	19.9 µM (inactive)	43.7 µM (inactive)	4.24 µM (inactive)	49.1 µM (inactive)	17.5 µM (inactive)	23.4 µM (inactive)	
O=[N+]([O-])c1ccc(N/N=C(\c2ccccc2)c2ccccn2)nc1		0.429 µM (active)	5.56 µM (inactive)	1 µM (active)	14.4 µM (inactive)	0.0253 µM (active)	4.29 µM (inactive)	1.26 µM (inactive)		2.5 µM (inactive)	0.151	< 0.0391 µM (active)	0.906 µM (active)	9.14 µM (inactive)	1.11 µM (active)	7.41 µM (inactive)	0.0785 µM (active)	1.85 µM (inactive)	10.5 µM (inactive)	0.0794 µM (active)
COc1ccc(OC)c2c1C=CC(Br)=CC2	0.144 µM (active)	0.372 µM (active)		0.285 µM (active)		0.136 µM (active)	0.224 µM (active)	0.43 µM (active)	0.372 µM (active)	0.137 µM (active)	0.201	0.314 µM (active)	0.193 µM (active)	0.35 µM (active)	0.279 µM (active)	0.239 µM (active)	0.312 µM (active)	0.216 µM (active)	0.148 µM (active)	0.223 µM (active)
CCOC(=O)C(C(N)=O)C1=Nc2cc([N+](=O)[O-])ccc2N/C1=C\C(=O)c1ccccc1 (stereo not given)		23.1 µM (inactive)	17.7 µM (inactive)	13.3 µM (inactive)	24 µM (inactive)	16.5 µM (inactive)	16.5 µM (inactive)	11.3 µM (inactive)	31.3 µM (inactive)	17.3 µM (inactive)	12.6	17.9 µM (inactive)	11.4 µM (inactive)	25.6 µM (inactive)	11.2 µM (inactive)	15.8 µM (inactive)	15.3 µM (inactive)	16.7 µM (inactive)	15.4 µM (inactive)	14.9 µM (inactive)
CC(Cc1ccccc1)N(C)Cc1nc(C2CCC([N+](=O)[O-])O2)no1 (stereo not given)	19.5 µM (inactive)	2.51 µM (inactive)	19 µM (inactive)	2.47 µM (inactive)	15.6 µM (inactive)	2.77 µM (inactive)	2.46 µM (inactive)	10.2 µM (inactive)	16.9 µM (inactive)	5.96 µM (inactive)	2.17	3.72 µM (inactive)	11.9 µM (inactive)	11.9 µM (inactive)	8.55 µM (inactive)	6.82 µM (inactive)		11.5 µM (inactive)	21.3 µM (inactive)	
COc1ccc2oc(=O)c(-c3csc(C)n3)cc2c1	> 100 µM (inactive)	> 100 µM (inactive)	30.5 µM (inactive)	24.7 µM (inactive)	> 100 µM (inactive)	> 100 µM (inactive)	30.7 µM (inactive)	23 µM (inactive)	29.2 µM (inactive)	22.9 µM (inactive)	> 100	> 100 µM (inactive)	54.2 µM (inactive)	> 100 µM (inactive)	49.4 µM (inactive)	> 100 µM (inactive)	44.4 µM (inactive)	> 100 µM (inactive)	19.5 µM (inactive)	
CC(C)CC(C#CCCOC(=O)c1ccccc1)OC(=O)c1ccccc1 (stereo not given)	> 10 µM (inactive)	> 10 µM (inactive)	> 10 µM (inactive)	> 10 µM (inactive)	> 10 µM (inactive)	> 10 µM (inactive)	> 10 µM (inactive)	> 10 µM (inactive)	> 10 µM (inactive)	> 10 µM (inactive)	> 10		> 10 µM (inactive)	> 10 µM (inactive)	> 10 µM (inactive)	> 10 µM (inactive)	> 10 µM (inactive)	> 10 µM (inactive)	> 10 µM (inactive)	
Cc1cn(C2CC(N)C(C(=O)O)O2)c(=O)[nH]c1=O (stereo not given)	> 100 µM (inactive)	> 100 µM (inactive)		> 100 µM (inactive)	> 100 µM (inactive)	> 100 µM (inactive)	> 100 µM (inactive)	> 100 µM (inactive)	> 100 µM (inactive)	> 100 µM (inactive)	> 100	> 100 µM (inactive)	> 100 µM (inactive)		> 100 µM (inactive)	> 100 µM (inactive)	> 100 µM (inactive)	> 100 µM (inactive)	> 100 µM (inactive)	> 100 µM (inactive)
CO[C@]12C[C@@H](CNC(=O)c3cc(Br)c[nH]3)O[C@H]1NC(=O)N2	> 100 µM (inactive)	> 100 µM (inactive)		> 100 µM (inactive)	> 100 µM (inactive)	> 100 µM (inactive)	> 100 µM (inactive)	> 100 µM (inactive)	> 100 µM (inactive)	> 100 µM (inactive)	> 100	> 100 µM (inactive)	> 100 µM (inactive)	> 100 µM (inactive)	> 100 µM (inactive)	> 100 µM (inactive)	> 100 µM (inactive)	> 100 µM (inactive)	> 100 µM (inactive)	> 100 µM (inactive)
O=C1CCCC/C1=C\c1ccc(Br)cc1	2.14 µM (inactive)	17.6 µM (inactive)		16.8 µM (inactive)	> 10 µM (inactive)		24.5 µM (inactive)	2.99 µM (inactive)		6.61 µM (inactive)		17.6 µM (inactive)	16.6 µM (inactive)	13.7 µM (inactive)	19.7 µM (inactive)	15.8 µM (inactive)	2.75 µM (inactive)	22.7 µM (inactive)	17.1 µM (inactive)	14.8 µM (inactive)
COC(=O)c1ccc2c(c1)S/C(=C/c1ccc3ccc4cccc5ccc1c3c45)S2	> 100 µM (inactive)	> 100 µM (inactive)	50.4 µM (inactive)	> 100 µM (inactive)	> 100 µM (inactive)	> 100 µM (inactive)	37.9 µM (inactive)	48.8 µM (inactive)	> 100 µM (inactive)	22.9 µM (inactive)	28.1	> 100 µM (inactive)	> 100 µM (inactive)		46 µM (inactive)	26.6 µM (inactive)	> 100 µM (inactive)	> 100 µM (inactive)	43.5 µM (inactive)	21 µM (inactive)
N=C(N)c1ccc(/C=C/c2ccc(C(=N)N)cc2)cc1	> 100 µM (inactive)	22.7 µM (inactive)	> 100 µM (inactive)	> 100 µM (inactive)	81.8 µM (inactive)	93.1 µM (inactive)	48 µM (inactive)	33.5 µM (inactive)	> 100 µM (inactive)	97.9 µM (inactive)	> 100		62.1 µM (inactive)	45.8 µM (inactive)	70.8 µM (inactive)	> 100 µM (inactive)	> 100 µM (inactive)	29.1 µM (inactive)	> 100 µM (inactive)	63.2 µM (inactive)
